From patent US6514994B2, “Levobupivacaine and its use” (Darwin Discovery, Ltd., priority 1997, dated 2003)

Columns and labels:
[1] = tested on: adult patients, axillary brachial plexus; conditions: by comparison; cited from earlier work
[2] = tested on: conscious, previously instrumented, adult sheep; test: Electrocardiological effects of i.v. infusion in conscious sheep; assay type: in vivo; conditions: for deaths: 150, 150 and 200 mg infused over 3 min, ventricular tachycardia and fibrillation; for convulsive dose (inducing ventricular arrhythmias): sheep, 3 min
Method: The electrocardiological effects of bupivacaine and levobupivacaine were compared, in two groups of conscious, previously instrumented, adult sheep. Two cohorts of 7 animals were infused over 1 min with 6.25, 12.5, 18.75, 25 and 37.5 mg levobupivacaine and 12.5, 25 and 37.5 mg bupivacaine or over 3 min with 37.5, 50, 75, 100, 150 and 200 mg levobupivacaine and 37.5, 75, 100, 150 and 200 mg bupivacaine. […] Both drugs, at convulsive doses (75 mg bupivacaine, 100 mg levobupivacaine), induced ventricular arrhythmias; however, there was a higher threshold of toxicity with levobupivacaine. […] Inasmuch as levobupivacaine is reported to produce at least equivalent neural blockade to bupivacaine, it therefore offers a great margin of clinical safety.
FIGS. 1 and 2 of the accompanying drawings show baseline record of ECG (left), S-T segment change (centre) and multiform ventricular tachycardia (right) after i.v. infusion (40 ml, 3 min) of 100 mg bupivacaine and then of 200 mg levobupivacaine, in the same sheep.

[3] = tested on: Pentobarbital-Anesthetized Swine; test: Intracoronary (LAD) injection cardiotoxicity model, lethal dose and QRS prolongation; assay type: in vivo; conditions: for lethal dose, median / lethal dose, range: LAD injection, death by VF; for lethal dose higher than that of B: injected into LAD or RCA
Method: Reiz et al, Acta Anaesthesiol. Scand. (1989) 33:93-98, reports that in vivo cardiotoxicity of local anaesthetics can be evaluated without interference by central mechanisms in a highly reproducible model (Pentobarbital-Anesthetized Swine) where the drug is injected directly into a coronary artery. When local anesthetics are injected in the left anterior descending artery (LAD), death occurs consistently by ventricular fibrillation (VF). The aim of this study was to determine the lethal dose of each of the local anesthetics levobupivacaine (L), bupivacaine (B) and ropivacaine (R) as well as to compare their respective effects on the QRS interval of the precordial ECG.
A total of 27 animals were randomized to receive a dose response injection of L, B or R into the LAD. A blinded randomized protocol was used. All calculations and exclusions were made prior to disclosure of treatment. The doses of each agent were 0.375, 0.75, 1.5, 3.0, 4.0 mg etc., in increments of 1 mg till death occurred. Each dose was made up in a volume of 3 ml plus the dead space of the catheter (1.2 ml), injected over 10 sec. The time between doses was 5 min, or longer, if ECG, blood pressure or heart rate had not returned to pre-injection controls. A complete 12-lead ECG was recorded on optical disk for later analysis. Statistical analysis was by ANOVA, Dunnett's and the Mann-Whitney-U test. Power analysis was performed (0.85 to 1.00).
One animal died of myocardial infarction following acute embolization into the LAD. […] Of the animals injected into the LAD, 7 had received L, 7 B and 6 R. All deaths following LAD injection were by VF and deaths following RCA injection were by A-V dissociation. […] The difference between L and R at 50 msec prolongation was insignificant.

[4] = tested on: guinea-pig papillary muscle; test: Developed force and action potential parameters in papillary muscle; conditions: for effect on developed force and action potential parameters at steady-state: equimolar concentrations
Method: Contraction was measured in mycocytes and papillary muscle isolated from guinea-pig ventricle and pectinate muscle isolated from human right atrial appendage. Myocytes were isolated from guinea-pig left ventricle by an enzyme digestion procedure and placed in a chamber on the stage of an inverted microscope. Cells were superfused with Krebs-Henseleit buffer (KHB) at 30° C. and field stimulated at 1.0 Hz. Cell shortening was measured with a video camera and edge-etection system. Papillary and pectinate muscles were placed in KHB at 37° C. and field stimulated at 1.0 Hz. Isometric tension was recorded at maximum developed force (Lmax). Electrophysical parameters were recorded in papillary muscles superfused with KSB at 37° C. and stimulated at 1.0 Hz. Standard action potential parameters were recorded, i.e. maximum rate of rise of membrane potential (Vmax); action potential amplitude (APA); and action potential duration to 90% repolarisation (APD90). Developed force was measured by recording isometric tension in muscles stretched to 90% of Lmax.

[5] = tested on: patients undergoing major abdominal surgery; test: Epidural anaesthesia in patients undergoing major abdominal surgery; assay type: in vivo, human; conditions: 0.75%
Method: This study compared the efficacy, safety and pharmacokinetics of 0.75% levobupivacaine with 0.75% bupivacaine in 58 patients undergoing major abdominal surgery under epidural anaesthesia. Although 0.75% bupivacaine is no longer used in some situations (obstetrics) and 0.5% concentrations are usually adequate for lower extremity surgery, 0.75% is preferential for abdominal surgery because of the enhancement of motor blockade. Onset of sensory anaesthesia to T10 (mean˜15 minutes), time to peak block height (T5, 25-30 min), and abdominal muscle relaxation (RAM score 3-5) were equivalent between the groups. Duration of total sensory anaesthesia was statistically longer with 0.75% levobupivacaine (levobupivacaine—551 min, racemic bupivacaine—506 min).

[6] = tested on: adult patients, axillary brachial plexus; test: Axillary brachial plexus neural blockade in patients with distal upper extremity orthopaedic surgery; assay type: in vivo, human
Method: 20 adult patients scheduled for distal upper extremity orthopaedic surgical procedures with axillary brachial plexus neural blockade were studied. Patients received an axillaryblock using 50 ml of 0.5% levobupivacaine without epinephrine. Transarterial and/or nerve stimulator techniques were used to identify injection into the brachial plexus sheath. If after 10 min patients required supplemental local anaesthetic to produce anaesthesia in a single peripheral nerve distribution, an additional 10 ml of 0.5% levobupivacaine could be administered as a single peripheral nerve-block at the axilla or wrist. Patients were monitored for onset and duration of sensory and motor block using a 0-2 scale (0=no block, 1=partial block, 2=complete block) for each major nerve distribution (median, musculocutaneous, radius, ulnar). Time to onset of adequate anaesthesia for surgery, time to first request for post-operative analgesics, as well as any subjective or objective signs of local anaesthetic toxicity were also collected. Blood samples for PK analysis were drawn from 10 patients.

sensory block = conditions: 0.25%; cited from earlier work
[7] = Plasma kinetics after administration (summary statement); assay type: in vivo
[8] = tested on: myocytes isolated from guinea-pig left ventricle; test: Cell shortening (contraction) in isolated ventricular myocytes; assay type: cell-based; conditions: cardiac myocytes, P<0.05
Method: Contraction was measured in mycocytes and papillary muscle isolated from guinea-pig ventricle and pectinate muscle isolated from human right atrial appendage.
Myocytes were isolated from guinea-pig left ventricle by an enzyme digestion procedure and placed in a chamber on the stage of an inverted microscope. Cells were superfused with Krebs-Henseleit buffer (KHB) at 30° C. and field stimulated at 1.0 Hz. Cell shortening was measured with a video camera and edge-etection system. Papillary and pectinate muscles were placed in KHB at 37° C. and field stimulated at 1.0 Hz. Isometric tension was recorded at maximum developed force (Lmax).
The mean drug concentration producing a 50% reduction (CI-50) in cell shortening was calculated from cumulative dose-response curves. All data were analysed by an unpaired t-test (for control data comparison) or one-way ANOVA (for comparison between drug groups), assuming a Gaussian distribution.

CCCCN1CCCCC1C(=O)Nc1c(C)cccc1C (racemic) [bupivacaine]
recommended dose [1]: 2 mg/kg
deaths [2]: Three animals died within 10 min
potency in inducing an arrhythmia, relative to levobupivacaine ([2]; in vivo, iv): slightly more potent
potency in sustaining the arrhythmia, relative to levobupivacaine ([2]; in vivo, iv): more than three times more potent
convulsive dose (inducing ventricular arrhythmias) ([2]; in vivo, iv): 75 mg
lethal dose, median [3]: 5 mg
lethal dose, range [3]: 4 to 6 mg
effect on developed force and action potential parameters at steady-state [4]: No significant differences
duration of total sensory anaesthesia [5]: 506 min
onset of sensory anaesthesia to T10, mean [5]: ~15 min

CCCCN1CCCC[C@H]1C(=O)Nc1c(C)cccc1C [levobupivacaine, (S)-1-butyl-N-(2,6-dimethylphenyl)-2-piperidinecarboxamide]
duration of sensory/motor block in at least two nerve distributions, range ([6]; 0.5%, 50-60 ml): 14 to 24 h
mean duration of sensory/motor block in at least two nerve distributions ([6]; 0.5%, 50-60 ml): 20 h
sensory and motor blockade in all four peripheral nerve distributions immediately post-operatively ([6]; 0.5%, 50-60 ml): All patients had complete sensory and motor blockade
time to request for supplemental analgesics ([6]; 0.5%, 50-60 ml): 15 h
time to request for supplemental analgesics, range ([6]; 0.5%, 50-60 ml): 9 to 24 h
patients requiring general anaesthesia due to inadequate sensory/motor block at 30 min post-injection ([6]; 0.5%, 50-60 ml, 20 patients): 2 patients
patients with adequate onset of sensory/motor blockade for surgical anaesthesia within 30 min ([6]; 0.5%, 50-60 ml, 20 patients): 18 patients
signs or symptoms of local anaesthetic toxicity ([6]; 3-5 mg/kg): No patient demonstated any subjective or objective signs or symptoms of local anaesthetic toxicity
well tolerated doses for axillary block ([6]; axillary block, patients): 3 to 5 mg/kg
sensory block efficacy and duration compared with bupivacaine (sensory block): comparable efficacy to bupivacaine
time to reach Tmax compared with the same dose of racemate ([7]; in vivo): takes longer to reach Tmax
plasma clearance rate compared with bupivacaine ([7]; within 0-4 hours post-administration): faster plasma clearance rate
deaths [2]: No animals died
ventricular arrhythmias induced, compared with the same doses of bupivacaine ([2]; in vivo): Significantly fewer, as well as less deleterious
convulsive dose (inducing ventricular arrhythmias) ([2]; in vivo, iv): 100 mg
lethal dose, median [3]: 8 mg
lethal dose, range [3]: 7 to 9 mg
difference in dose vs B to obtain the same degree of QRS prolongation ([3]; at 40 msec QRS prolongation): 25%
difference between L and R in dose for QRS prolongation ([3]; at 50 msec prolongation): insignificant
difference in dose vs B to obtain the same degree of QRS prolongation ([3]; at 90 msec QRS prolongation): 47%
lethal dose higher than that of B [3]: approximately 50%
effect on developed force and action potential parameters at steady-state [4]: No significant differences
recovery of contractility on washout with drug-free perfusate, vs bupivacaine ([4]; guinea-pig papillary muscle, P<0.05): significantly greater
recovery of contractility on washout with drug-free perfusate, vs bupivacaine [8]: significantly greater
duration of total sensory anaesthesia [5]: 551 min
onset of sensory anaesthesia to T10, mean [5]: ~15 min

CCCN1CCCC[C@H]1C(=O)Nc1c(C)cccc1C [ropivacaine, reference compound]
lethal dose, median [3]: 8 mg
lethal dose, range [3]: 4 to 10 mg
QRS prolongation ([3]; at the 6 mg dose, 100% approximately 60 msec): ≤ 100%
lethal dose higher than that of B [3]: approximately 50%
effect on developed force and action potential parameters at steady-state [4]: No significant differences
